“Also recorded” adds a separate entry of the source.
Columns and labels:
HN5 cells [1] = assay: γ-H2AX foci formation (DNA damage); type: cell-based; settings: inhibitor pretreatment, cGNR 24h, 2 Gy (250 kV, 15 mA)
Source text: (§1) FIGS. 5A-5G: Blocking endocytosis steps modulates radiosensitization by cGNRs. […] The radiation dose enhancement factor (DEF) at 10% cell survival was cGNR—1.08, CPZ+cGNR—1.005, BAF-A1+cGNR—1.19, LAC+cGNR—1.16, and CHQ+cGNR—1.20. (B) Intracellular localization cGNR in HN5 cells imaged by TEM 24 hrs after treatment with cGNRs in the presence of (a) PBS, (b) CPZ, (c) BAF-A1, (d) LAC or (e) CHQ for 1 hr. […] (E) Reactive oxygen species measured by CellROX assay kit following treatment of HN5 cells with 2 Gy radiation in the absence or presence of specific inhibitors of internalization with and without cGNRs. […] (F) Elemental gold content of cells analyzed by inductively coupled plasma mass spectrometry.
Therefore, γ-H2AX was evaluated in HN5 cells pretreated with different pharmacological inhibitors and incubated with cGNR for 24h followed by 2 Gy of radiation (250 kV, 15 mA) (FIG. 5C).

HN5 cells [2] = assay: Micronuclei per 1000 binucleated cells; type: cell-based; settings: cGNRs 24 hrs and radiation, inhibitor pretreatment 1 hr
Source text: as §1
FIG. 10A-10C: Number of micronuclei per 1000 binucleated cells broken down as (A) one, (B) two, or (C) multiple. Cells were treated with cGNRs and radiation in the absence or presence of specific inhibitors of internalization.

HN5 cells [3] = assay: Reactive oxygen species by CellROX assay kit; type: cell-based; settings: 2 Gy radiation, with cGNRs, with or without inhibitors
Source text: as §1

HN5 cells [4] = assay: Elemental gold content of cells by ICP-MS; type: cell-based; settings: 24 h treatment
Source text: as §1

HN5 cells [5] = assay: Clonogenic survival with inhibitors of endocytosis steps plus cGNR; type: cell-based; settings: HN5, 250 kVp; inhibitor pre-treatment 1 hr, then cGNR 24 hr; CPZ 5 μg/ml, BAF-A1 100 nM, LAC 1 μM, CHQ 5 μM
Source text: as §1
(§2) To study the effect of each step of cGNR internalization on radiosensitization, each step of the endocytotic pathway (energy-dependent receptor-mediated endocytosis, early endosomal entrapment, stasis in the late endosomal compartment, and endolysosomal fusion) was blocked using pharmacologic inhibitors in HN5 cells.

HN5 cells [6] = assay: Intracellular localization of cGNR by TEM; type: cell-based; settings: TEM 24 hrs after cGNRs, inhibitor for 1 hr
Source text: as §1, §2

HN5 xenografts = assay: Tumor regrowth delay of HN5 xenografts with radiation; type: in vivo, nu/nu mice; settings: CHQ 6 hrs and 24 hrs before radiation, with cGNRs; p=0.02
Source text: as §1

SMILES | γ-H2AX foci / DNA damage (HN5 cells [1]) | γ-H2AX foci / DNA damage (HN5 cells [1]; listed as BAF-A1) | γ-H2AX foci / DNA damage (HN5 cells [1]; listed as Bafilomycin) | micronuclei per 1000 binucleated cells (HN5 cells [2]) | micronuclei per 1000 binucleated cells (HN5 cells [2]; listed as BAF-A1) | intracellular reactive oxygen species (HN5 cells [3]) | intracellular reactive oxygen species (HN5 cells [3]; listed as BAF-A1) | cellular gold content / uptake of cGNR (HN5 cells [4]) | cellular gold content / uptake of cGNR (HN5 cells [4]; listed as BAF-A1) | radiation dose enhancement factor (DEF) at 10% cell survival (HN5 cells [5]) | intracellular localization of cGNR (HN5 cells [6]) | γ-H2AX foci / DNA damage (HN5 cells [1]; listed as CHQ) | time to tumor volume quadrupling (HN5 xenografts) | cellular gold content / uptake of cGNR (HN5 cells [4]; listed as CHQ) | γ-H2AX foci / DNA damage (HN5 cells [1]; listed as CPZ) | γ-H2AX foci / DNA damage (HN5 cells [1]; listed as LAC) | micronuclei per 1000 binucleated cells (HN5 cells [2]; listed as LAC) | intracellular reactive oxygen species (HN5 cells [3]; listed as LAC) | cellular gold content / uptake of cGNR (HN5 cells [4]; listed as LAC)
CO/C1=C\C(C)=C\[C@@H](C)[C@@H](O)[C@@H](C)C/C(C)=C/C=C/[C@H](OC)[C@@H]([C@@H](C)[C@@H](O)[C@H](C)[C@@]2(O)C[C@@H](O)[C@H](C)[C@@H](C(C)C)O2)OC1=O [bafilomycin A, bafilomycin A1] | greatest increase in DNA damage | increased foci formation | further enhanced the DNA damage | significantly higher number of MNBC | enhancement in radiosensitization; also recorded: significant increase in radiation-induced micronuclei formation | further enhanced the intracellular ROS | even greater enhancement of oxidative stress | no significant differences in the cellular uptake of cGNR | no different | 1.19 | unclustered cGNRs | – | – | – | – | – | – | – | –
CCN(CC)CCCC(C)Nc1ccnc2cc(Cl)ccc12 (stereo not shown) [chloroquine] | further enhanced the DNA damage | – | – | – | – | – | – | no significant differences in the cellular uptake of cGNR | – | 1.2 | unclustered cGNRs | increased foci formation | statistically significant increase in time to tumor volume quadrupling | no different | – | – | – | – | –
CN(C)CCCN1c2ccccc2Sc2ccc(Cl)cc21 [chlorpromazine] | abrogated the effect of cGNR treatment | – | – | – | – | reduced the intracellular ROS | – | significantly (p<0.001) inhibited the cellular uptake of cGNRs | – | 1.005 | blocked internalization of cGNRs | – | – | – | not | – | – | – | –
CC(=O)N[C@@H](CSC(=O)[C@]1([C@@H](O)C(C)C)NC(=O)[C@H](C)[C@@H]1O)C(=O)O [lactacystin] | further enhanced the DNA damage | – | – | significantly higher number of MNBC | – | further enhanced the intracellular ROS | – | no significant differences in the cellular uptake of cGNR | – | 1.16 | unclustered cGNRs | – | – | – | – | increased foci formation | enhancement in radiosensitization; also recorded: significant increase in radiation-induced micronuclei formation | even greater enhancement of oxidative stress | no different

Source: patent US20180250404A1, “HIGH-Z NANOPARTICLES AND THE USE THEREOF IN RADIATION THERAPY” (Board of Regents, The University of Texas System, priority 2015, published 2018)
